Laboratory results: patent US9018219B2, “Fused aminodihydropyrimidine derivative” (Shionogi & Co., Ltd., priority 2010, dated 2015)

What was measured:
CYP2D6 = molecular target: T1, CYP2D6 (Homo sapiens, UniProt P10635); assay: CYP inhibition test (CYP2D6); format: in vitro ADME; conditions: pooled human hepatic microsome 0.2 mg protein/mL, 15 minutes, 37° C.; read-out: IC50 CYP2D6 (dextromethorphan O-demethylation)
T1 construct: enzyme, pooled human hepatic microsome 0.2 mg protein/mL; from tissue
T1 sequence (P10635 whole entry): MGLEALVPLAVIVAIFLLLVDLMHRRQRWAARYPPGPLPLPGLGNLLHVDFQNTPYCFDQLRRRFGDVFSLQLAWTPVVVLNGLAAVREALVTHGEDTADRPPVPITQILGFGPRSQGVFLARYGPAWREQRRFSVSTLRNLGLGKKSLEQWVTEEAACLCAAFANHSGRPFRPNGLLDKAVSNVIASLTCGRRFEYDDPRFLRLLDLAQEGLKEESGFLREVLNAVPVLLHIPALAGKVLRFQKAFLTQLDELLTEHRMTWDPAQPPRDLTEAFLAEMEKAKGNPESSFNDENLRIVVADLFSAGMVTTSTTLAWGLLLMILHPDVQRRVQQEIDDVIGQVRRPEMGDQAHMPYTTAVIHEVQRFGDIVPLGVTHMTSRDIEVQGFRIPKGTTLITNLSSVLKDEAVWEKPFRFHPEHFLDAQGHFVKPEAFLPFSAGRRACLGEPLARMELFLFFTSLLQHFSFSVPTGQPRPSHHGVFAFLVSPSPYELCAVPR
Excerpt: Using commercially available pooled human hepatic microsome, and employing, as markers, 7-ethoxyresorufin O-deethylation (CYP1A2), tolbutamide methyl-hydroxylation (CYP2C9), mephenyloin 4′-hydroxylation (CYP2C19), dextromethorphan O-demethylation (CYP2D6), and terfenedine hydroxylation (CYP3A4) as typical substrate metabolism reactions of human main five CYP enzyme forms (CYP1A2, 2C9, 2C19, 2D6, 3A4), an inhibitory degree of each metabolite production amount by a compound of the present invention was assessed. […] After the centrifugation at 3000 rpm for 15 minutes, resorufin (CYP1A2 metabolite) in the supernatant was quantified by a multi-label counter and hydroxytolbutamide (CYP2C9 metabolite), 4′-hydroxymephenyloin (CYP2C19 metabolite), dextrorphan (CYP2D6 metabolite), and terfenadine alcohol metabolite (CYP3A4 metabolite) were quantified by LC/MS/MS. Addition of only DMSO being a solvent dissolving a compound to a reaction system was adopted as a control (100%), remaining activity (%) was calculated and IC50 was calculated by reverse presumption by a logistic model using a concentration and an inhibition rate.

[1] = molecular target: T2, human ether-a-go-go related gene (hERG) channel (Homo sapiens, UniProt Q12809); assay: hERG test; format: cell-based; conditions: HEK293 cells expressing hERG channel, whole cell patch clamp, 10 minutes, concentration not given
T2 construct: expressed in transfected cells; host or cells: HEK293
T2 sequence (Q12809 whole entry): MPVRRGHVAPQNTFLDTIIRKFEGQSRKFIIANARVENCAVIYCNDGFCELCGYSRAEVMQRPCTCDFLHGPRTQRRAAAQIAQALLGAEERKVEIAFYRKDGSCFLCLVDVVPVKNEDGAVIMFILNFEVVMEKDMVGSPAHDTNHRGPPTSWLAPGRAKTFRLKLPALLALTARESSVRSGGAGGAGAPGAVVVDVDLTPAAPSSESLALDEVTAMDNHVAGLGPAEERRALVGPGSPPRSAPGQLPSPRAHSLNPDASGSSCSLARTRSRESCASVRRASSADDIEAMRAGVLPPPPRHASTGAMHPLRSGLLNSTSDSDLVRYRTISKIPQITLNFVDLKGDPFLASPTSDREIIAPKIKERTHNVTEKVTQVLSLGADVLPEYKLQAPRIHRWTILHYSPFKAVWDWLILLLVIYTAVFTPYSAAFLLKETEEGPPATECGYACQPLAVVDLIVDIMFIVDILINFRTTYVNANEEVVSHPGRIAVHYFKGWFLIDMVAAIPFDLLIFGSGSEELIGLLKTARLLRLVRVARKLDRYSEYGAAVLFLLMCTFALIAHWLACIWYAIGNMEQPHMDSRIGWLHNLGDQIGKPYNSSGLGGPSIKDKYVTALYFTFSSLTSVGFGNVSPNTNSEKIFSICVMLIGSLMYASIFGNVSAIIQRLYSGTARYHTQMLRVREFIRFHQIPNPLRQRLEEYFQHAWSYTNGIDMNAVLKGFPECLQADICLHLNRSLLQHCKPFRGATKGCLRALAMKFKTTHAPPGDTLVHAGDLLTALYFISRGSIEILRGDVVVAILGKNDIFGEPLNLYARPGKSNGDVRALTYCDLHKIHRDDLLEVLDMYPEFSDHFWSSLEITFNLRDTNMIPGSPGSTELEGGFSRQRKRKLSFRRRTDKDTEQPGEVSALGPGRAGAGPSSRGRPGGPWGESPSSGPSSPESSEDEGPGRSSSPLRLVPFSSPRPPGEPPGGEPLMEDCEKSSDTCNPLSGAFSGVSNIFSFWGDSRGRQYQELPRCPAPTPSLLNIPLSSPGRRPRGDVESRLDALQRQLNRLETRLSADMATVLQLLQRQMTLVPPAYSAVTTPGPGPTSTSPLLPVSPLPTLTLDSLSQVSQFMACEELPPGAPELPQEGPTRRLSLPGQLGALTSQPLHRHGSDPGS
Excerpt: For the purpose of assessing risk of an electrocardiogram QT interval prolongation, effects on delayed rectifier K+ current (IKr), which plays an important role in the ventricular repolarization process, of the compound of the present invention was studied using HEK293 cells expressing human ether-a-go-go related gene (hERG) channel.
A cell was retained at a membrane potential of −80 mV by whole cell patch clamp method using an automated patch clamp system (PatchXpress 7000A, Axon Instruments Inc.) and leakage potential at −50 mV was generated. IKr induced by depolarization pulse stimulation at +40 mV for 2 seconds and, further, repolarization pulse stimulation at −50 mV for 2 seconds was recorded. […] From the recording IKr, an absolute value of the tail peak current was measured based on the current value at the resting membrane potential using an analysis software (DataXpress ver.1, Molecular Devices Corporation). Further, the % inhibition relative to the tail peak current before application of the compound of the present invention was calculated, and compared with the vehicle-applied group (0.1% dimethyl sulfoxide solution) to assess influence of the compound of the present invention on IKr.

Recombinant human BACE-1 = molecular target: T3, Recombinant human BACE-1 (Homo sapiens, UniProt P56817); assay: Assay of BACE1 inhibitory activity; format: biochemical; conditions: Recombinant human BACE1 7.4 nmol/L, substrate peptide 18 nmol/L, pH 5.0, 30° C. for 3 hours; read-out: IC50 (50% inhibitory concentration against the enzymatic activity)
T3 construct: purchased R&D Systems
T3 sequence (P56817 46-501): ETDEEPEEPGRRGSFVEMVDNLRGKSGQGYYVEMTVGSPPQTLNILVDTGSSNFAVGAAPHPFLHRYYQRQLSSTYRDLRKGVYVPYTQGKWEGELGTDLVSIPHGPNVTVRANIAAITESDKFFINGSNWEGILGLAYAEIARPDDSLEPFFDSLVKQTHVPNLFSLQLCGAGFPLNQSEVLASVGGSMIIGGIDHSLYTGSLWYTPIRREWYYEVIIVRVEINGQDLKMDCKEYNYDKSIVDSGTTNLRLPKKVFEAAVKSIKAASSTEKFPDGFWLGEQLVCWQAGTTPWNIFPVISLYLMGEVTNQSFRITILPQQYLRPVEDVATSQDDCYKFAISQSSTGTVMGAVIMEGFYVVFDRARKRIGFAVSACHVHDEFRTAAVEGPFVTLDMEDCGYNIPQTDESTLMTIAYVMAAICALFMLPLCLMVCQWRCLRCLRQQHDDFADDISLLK
Method: 48.5 μL of substrate peptide solution (Biotin-XSEVNLDAEFRHDSGC-Eu: X=ε-amino-n-capronic acid, Eu=Europium cryptate) was added to each well of 96-hole half-area plate (a black plate: Costar), and after addition of 0.5 μl of the compound of the present invention (N,N′-dimethylformamide solution) and 1 μl of Recombinant human BACE-1 (R&D Systems), the reaction mixture was incubated at 30° C. for 3 hours. The substrate peptide was synthesized by reacting Cryptate TBPCOOH mono SMP (CIS bio international) with Biotin-XSEVNLDAEFRHDSGC (Peptide Institute, Inc.). The final concentrations of the substrate peptide and Recombinant human BACE1 were adjusted to 18 nmol/L and 7.4 nmol/L, respectively, and the reaction was performed in sodium acetate buffer (50 mmol/L sodium acetate, pH 5.0, 0.008% Triton X-100). After the incubation for reaction, 50 μl of 8.0 μg/ml Streptavidin-XL665 (CIS bio international) dissolved in phosphate buffer (150 mmol/L K2HPO4—KH2PO4, pH 7.0, 0.008% Triton X-100, 0.8 mol/L KF) was added to each well and left stand at 30° C. for 1 hour. After then, fluorescence intensity was measured (excitation wavelength: 320 nm, measuring wavelength: 620 nm and 665 nm) using Wallac 1420 multilabel counter (Perkin Elmer life sciences). Enzymatic activity was determined from counting ratio of each wavelength (10,000×Count 665/Count 620) and 50% inhibitory concentration against the enzymatic activity (IC50) was calculated.

IC50 (CYP2D6): > 20 µM
IC50 (Recombinant human BACE-1): ≤ 1 µM
Compound: C[C@@]1(c2cc(-c3cccnc3F)ccc2F)Cc2nccn2C(N)=N1 [Compound I-2]
% inhibition of IKr tail peak current [1]: 12.3%
